Data: the supplement of paper PMC5908809

Columns and labels:
[1] = tested on: SNK-6 (IL-2 2.5 ng/mL); assay: drug sensitivity score (DSS) (DSS units); higher = more sensitive; extreme values may be limits of the assay; settings: 72 h
[2] = tested on: NK-92 (IL-2 2.5 ng/mL); assay: as above; settings: 72 h
[3] = tested on: normal primary NK cells, pool 3 (3 donors) (IL-2 2.5 ng/mL); assay: as above; settings: 72 h
[4] = tested on: normal primary NK cells, pool 1 (3 donors) (IL-2 2.5 ng/mL); assay: as above; settings: 72 h
[5] = tested on: NK-YS (IL-2 2.5 ng/mL); assay: as above; settings: 72 h
[6] = tested on: IMC-1 (IL-2 20 ng/mL); assay: as above; settings: 72 h
[7] = tested on: YT (IL-2 2.5 ng/mL); assay: as above; settings: 72 h
[8] = tested on: NKL (IL-2 2.5 ng/mL); assay: as above; settings: 72 h
[9] = tested on: DERL-7 (IL-2 2.5 ng/mL); assay: as above; settings: 72 h
[10] = tested on: normal primary NK cells, pool 1 (3 donors), resting (IL-2 0 ng/mL); assay: as above; settings: 72 h
[11] = tested on: KAI3 (IL-2 2.5 ng/mL); assay: as above; settings: 72 h
[12] = tested on: normal primary NK cells, pool 2 (3 donors) (IL-2 2.5 ng/mL); assay: as above; settings: 72 h
[13] = tested on: KHYG-1 (IL-2 2.5 ng/mL); assay: as above; settings: 72 h
[14] = tested on: normal NK cells expanded with K562-aAPC; assay: as above; settings: 72 h; IL-2 2.5 ng/mL
Description: (§1)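 Drug sensitivity and resistance testing on K562-aAPC-expanded normal NK cells: 5 concentrations (10-fold steps over a 10,000-fold range), 72 h at 37 °C, viability by CellTiter-Glo normalised to DMSO and benzethonium chloride controls; DSS from the fitted curve.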

[15] = tested on: SNK-6 (IL-2 2.5 ng/mL); assay: percent inhibition of viability; higher = more inhibition; settings: 72 h
[16] = tested on: NK-92 (IL-2 2.5 ng/mL); assay: as above; settings: 72 h
[17] = tested on: normal primary NK cells, pool 3 (3 donors) (IL-2 2.5 ng/mL); assay: as above; settings: 72 h
[18] = tested on: normal primary NK cells, pool 1 (3 donors) (IL-2 2.5 ng/mL); assay: as above; settings: 72 h
[19] = tested on: NK-YS (IL-2 2.5 ng/mL); assay: as above; settings: 72 h
[20] = tested on: IMC-1 (IL-2 20 ng/mL); assay: as above; settings: 72 h
[21] = tested on: YT (IL-2 2.5 ng/mL); assay: as above; settings: 72 h
[22] = tested on: NKL (IL-2 2.5 ng/mL); assay: as above; settings: 72 h
[23] = tested on: DERL-7 (IL-2 2.5 ng/mL); assay: as above; settings: 72 h
[24] = tested on: normal primary NK cells, pool 1 (3 donors), resting (IL-2 0 ng/mL); assay: as above; settings: 72 h
[25] = tested on: KAI3 (IL-2 2.5 ng/mL); assay: as above; settings: 72 h
[26] = tested on: normal primary NK cells, pool 2 (3 donors) (IL-2 2.5 ng/mL); assay: as above; settings: 72 h
[27] = tested on: KHYG-1 (IL-2 2.5 ng/mL); assay: as above; settings: 72 h
[28] = tested on: normal NK cells expanded with K562-aAPC; assay: as above; settings: 72 h, IL-2 2.5 ng/mL
Description: as §1

Cc1cc(Nc2cc(CN3CCOCC3)c3nc(C)c(Cc4ccc(Cl)cc4F)n3n2)n[nH]1 [Gandotinib] (max concentration tested 10000 nM)
Settings	drug sensitivity score
[1]	18.8
[2]	18.3
[3]	8.97
[4]	13
[5]	17.1
[6]	10.4
[7]	15
[8]	20.4
[9]	21
[10]	0.18
[11]	22
[12]	11.1
[13]	23.9
[14]	20

percent inhibition of viability [%]
Settings	1 nM	10 nM	100 nM	1000 nM	10000 nM
[15]	6.62	7.51	9.98	95	87.1
[16]	4.87	11.2	20.5	86.5	96.2
[17]	-10.9	-0.67	2.59	43.9	65.9
[18]	-11.8	-7.74	18.1	58.3	79.4
[19]	1.47	2.64	22.9	77.5	93.6
[20]	-4.23	-6.96	-22.2	36.1	99.6
[21]	1.95	-0.29	5.49	77.5	94.8
[22]	-9.53	-6.03	52.5	77.8	71.9
[23]	2.64	12.5	31.3	96.2	100
[24]	-20.1	-7.1	2.98	-45.4	20.2
[25]	8.43	12.9	45.1	92.9	82.2
[26]	-11.3	-5.04	11.2	50.9	52.6
[27]	0.26	6.43	45.7	106	95.9
[28]	-0.65	3.87	25.1	89.6	70.5

COc1cc2ncnc(Nc3ccc(F)c(Cl)c3)c2cc1OCCCN1CCOCC1 [Gefitinib] (max concentration tested 10000 nM)
Settings	drug sensitivity score
[1]	9.38
[2]	4.15
[3]	1.42
[4]	0.66
[5]	2.2
[6]	0.3
[7]	3.98
[8]	5.38
[9]	4.07
[10]	3
[11]	4.99
[12]	2.32
[13]	6.6
[14]	5.01

percent inhibition of viability [%]
Settings	1 nM	10 nM	100 nM	1000 nM	10000 nM
[15]	25.8	34.7	27.6	9.98	42.4
[16]	-2.12	5.54	-3.03	4.12	64.8
[17]	-15.3	-8.24	11.2	-13.2	40.1
[18]	-0.53	-12.4	-3.97	-11.3	26.3
[19]	-1.51	1.15	7.36	7.9	30.8
[20]	-4.89	1.4	2.3	2.27	13.5
[21]	-3.09	5.08	4.23	5.38	57.6
[22]	-4.33	-6.47	-2.03	12	62.4
[23]	3.62	-2.09	5.77	1.47	70.4
[24]	-4.9	-15.9	-4.48	-7.6	64.4
[25]	0.49	-0.54	-4.64	11.8	56.9
[26]	-22.1	-19.1	6.35	2.61	39.1
[27]	-2.54	5.78	8.11	9.75	89.9
[28]	-4.93	-2.95	-4.74	12.3	56.2

O=S(=O)(c1cccc2c(O)nccc12)N1CCCNCC1 [Hydroxyfasudil] (max concentration tested 37500 nM)
Settings	drug sensitivity score
[1]	3.39
[2]	0.43
[3]	1.36
[4]	0.25
[5]	0.37
[6]	0
[7]	0
[8]	3.11
[9]	2.59
[10]	0.05
[11]	1.06
[12]	2.54
[13]	1.61
[14]	1.51

percent inhibition of viability [%]
Settings	3.75 nM	37.5 nM	375 nM	3750 nM	37500 nM
[15]	2.11	-9.82	10.9	4.05	52
[16]	2.93	2.6	5.94	-2.67	19.6
[17]	-6.09	-6.32	12.8	7.6	21.9
[18]	-10.4	-4.9	-10.6	-4.54	17.3
[19]	-6.95	-1.93	3.17	-3.19	18.9
[20]	-4.78	-3.11	0.96	2.27	5.47
[21]	-4.2	0.69	4.57	-4.39	2.68
[22]	3.67	6.42	10.9	12.7	31.9
[23]	2.41	-1.56	-3.11	9.25	29.7
[24]	-1.24	11.4	11.7	-5.48	13.2
[25]	-11.8	-3.4	2.23	-8.56	32.2
[26]	-5.27	-3.13	-1.92	7.54	31.2
[27]	-8.68	0.53	6.74	10.9	23
[28]	-7.06	-1.95	-4.05	11.7	18.2
